Results published in patent US8748566B2, “Pharmacologically active antiviral peptides and methods of use” (priority 2000, dated 2014).
Peptide text beside a SMILES is read from it. * marks the point of attachment. Biotin = O=C1N[C@H]2[C@H](CS[C@H]2CCCCC(=O)*)N1; Ahx = NCCCCCC(=O)O

How the values were obtained:
Type in all cases: cell-based
[1] = test system: HSV-1 KOS; assay: Plaque reduction assay, HSV-1 KOS infection of Vero cell cultures; conditions: for antiviral activity compared with EB: plaque reduction (FIG. 1D, FIG. 2)
Description: The procedures for growing Vero cells and preparing high titer stocks of HSV-1 KOS as described in (Grau et al., Invest. Ophthal. and Vis. Sci. 30: 2474 (1989)) were utilized. Vero cells were maintained in carbonate-buffered DMEM supplemented with 5% calf serum and 5% fetal bovine serum (regular medium). For some studies, cells were switched to serum-free DMEM buffered with 25 mM Hepes (pH 7.4) and allowed to adapt to that medium for 30 min prior to experimental treatments. Vero cells were seeded into wells (0.28 cm^2) of microtiter plates either at 3.5×10^4 cells/well for use 1 day later (8×10^4 cells/well) or at 1×10^4 cells/well for use 3 days later (2×10^5 cells/well).
Confluent Vero cell cultures in microtiter plates were infected for 1 hour at 37° C. in 40 μl of medium. Except where indicated, peptide treatments in 40 μl of medium lasted from 1 hour before through 1 hour after infection. At the end of the adsorption period, the cultures were re-fed with 100 μl of regular medium. Plaque formation was scored 2 days later and the number of plaques scored per well was normalized to the number counted in the absence of peptide. Using an ocular micrometer, plaque size ([…]) was determined by measuring the largest plaque diameter (L) and the diameter at a 90° angle to that (S). The size of each of the first 40 scored plaques was measured except when a plaque included less than 10 rounded cells or touched the side of the well.

[2] = test system: HSV-1 KOS; assay: Yield reduction assay (virus production in infected Vero cells)
Description: Three days post-infection, Vero cell cultures in microtiter plates were frozen (−80° C.) and thawed (37° C.) three times. Cells were suspended by repeated pipetting and microtiter plates were spun for 10 min at 700×g in a Beckman model TJ-6 tabletop centrifuge. The virus-containing supernates were serially diluted in regular medium and titered on Vero cells. Plaques were counted after staining the monolayers with crystal violet as taught by Grau et al., Invest. Ophthalmol. Vis. Sci. 30:2474 (1989).
Vero cell cultures as prepared in Example 1 were infected with HSV-1 and assayed for virus production as described in Example 1. The antiviral activity of an antiviral peptide according to the present invention EB (SEQ ID NO:1) was compared to the antiviral activity of the current HSV antiviral nucleoside standard, acyclovir. The two peptides were added to the Vero cells one hour prior to infection with HSV.

[3] = test system: hrR3; assay: LacZ+ virus (hrR3) entry assay; conditions: Table 3; read-out: Entry Blocking Activity (IC50)
Description: Confluent Vero cell cultures in 96-well microtiter plates were switched to Hepes-buffered serum-free DMEM, cooled on ice to 4° C. for 30 min, and infected with hrR3 for 1 hour at 4° C. in 40 μl of medium. Unattached virus was removed by rinsing with ice-cold medium. Treatments with antiviral peptide SEQ ID NO:1, referred to as EB, or a control peptide which comprised the RRKK tetra-peptide (SEQ ID NO:16) attached to a scrambled version of the membrane transiting peptide RRKKLAALPLVLAAPLAVLA (SEQ ID NO:17) (referred to as EBX), or mock-treatments with peptide-free medium were carried out in serum-free DMEM as indicated. Virus entry was initiated by transferring cultures to 37° C. To inactivate any remaining extracellular virus, cultures were rinsed with PBS and exposed to low pH citrate buffer (40 mM citric acid, 10 mM KCl, 135 mM NaCl, pH 3.0, according to Highlander et al., J. Virol. 61:3356 (1987), for 1 min at 23° C. The citrate was rinsed off with PBS and cultures were maintained in serum-supplemented DMEM until they were fixed with 0.5% gluteraldehyde in 5×PBS for 30 min at 23° C., stained for β-galactosidase activity for 1 hour or overnight at 23° C. with X-gal (Fisher Biotech; BP 1615-1) in 1×PBS containing […], 1.3 mM K4Fe(CN)6, and 1.3 mM K3Fe(CN)6, and scored for the presence of blue lacZ^+ cells.
In these studies, the hrR3 virus was pre-adsorbed to cells for 1 hour at 4° C. before ice cold 25 μM EB or EBX were added in serum-free DMEM. After an additional 1 hour at 4° C., cultures were shifted to 37° C. to initiate virus entry. At 15 min intervals following the temperature shift, any virus remaining outside the cells was inactivated by washing the cultures with low pH citrate buffer. Cultures were then rinsed and returned to peptide-free serum-supplemented DMEM until they were fixed and stained for f-galactosidase 8 hours after the temperature shift.
This conclusion is strengthened by the finding that the EB-sensitive phase of infection with pre-adsorbed virus clearly precedes expression of lacZ genes in hrR3 infected cells (FIG. 7A). Again, hrR3 was pre-adsorbed to cells for 1 hour at 4° C., unattached virus was rinsed off, and cells were kept for an additional hour at 4° C. Cultures were then transferred to 23° C. for 30 min before they were switched to 37° C. The more gradual change to 37° C. allowed cell layers to remain intact through subsequent frequent medium changes. Immediately following viral adsorption, cells were treated with 50 μM EB for 1 hour periods at consecutive 1 hour intervals. Between 1 and 4 hours post-infection, virus entry was inhibited by 70-80%. […] Parallel cultures were immediately fixed after mock-treatments and stained with X-gal. In these cultures, blue (lacZ^+) cells first appeared 7 hours post-infection and their number increased nearly linearly for the next 3 hours (FIG. 7A, (∘)). By 7 hours post-infection, EB ceased to be inhibitory.

[4] = test system: hrR3; assay: Virucidal assay
Description: […] The treated virus was diluted 200-fold with serum-supplemented DMEM and assayed for infectivity approximately 1 hour later in microtiter wells seeded with Vero cells (3.5×10^4 cells/well) 1 d earlier. Forty or 100 microliter volumes of diluted virus were adsorbed for 1 or 2 h at 37° C. and lacZ^+ cells were scored 8 hours later. In some experiments, aliquots of diluted virus were first dialyzed (Spectra/Por; MWCO 12-14,000) overnight at 4° C. against a 60-fold excess volume of Hepes-buffered serum-supplemented DMEM or forced by syringe through 0.22 μm membranes (Millex-GV; Millipore) before the remaining infectious virus was assayed.

[5] = test system: virus; assay: Anti-free virus activity (Table 3)
[6] = 4° C., read-out: Virucidal Activity 4° C. (IC50)
[7] = 37° C., read-out: Virucidal Activity 37° C. (IC50)

## N=C(N)NCCC[C@H](NC(=O)[C@@H](N)CCCNC(=N)N)C(=O)N[C@@H](CCCCN)C(=O)N[C@@H](CCCCN)C(=O)O [R-R-K-K tetramer, R-R-K-K, reference compound] (H-RRKK-OH; N-terminus and C-terminus assumed)
[1]; presence of serum, concentrations as high as 200 μM (FIG. 1A)
  antiviral activity: no antiviral activity

## Nc1nc2c(ncn2COCCO)c(=O)[nH]1 [acyclovir, reference compound]
[2]; added one hour prior to infection, EB statement for concentrations exceeding 10 μM (FIG. 3)
  antiviral activity, EB compared with acyclovir: highest antiviral activity at low dosages

## CC(C)C[C@H](NC(=O)[C@H](C)NC(=O)[C@H](CC(C)C)NC(=O)[C@H](CC(C)C)NC(=O)[C@@H](NC(=O)[C@H](C)NC(=O)[C@@H]1CCCN1C(=O)[C@H](CC(C)C)NC(=O)[C@H](CC(C)C)NC(=O)[C@H](C)NC(=O)[C@@H](NC(=O)[C@H](C)NC(=O)[C@H](C)NC(=O)[C@H](CCCCN)NC(=O)[C@H](CCCCN)NC(=O)[C@H](CCCNC(=N)N)NC(=O)[C@H](CCCNC(=N)N)NC(=O)CCCCCNC(=O)CCCC[C@@H]1SC[C@@H]2NC(=O)N[C@@H]21)C(C)C)C(C)C)C(=O)N[C@@H](CC(C)C)C(=O)N[C@@H](C)C(=O)N1CCC[C@H]1C(=O)O [bEB] ({Biotin-Ahx}-RRKKAAVALLPAVLLALLAP-OH)
[1]
  antiviral activity compared with EB: essentially as effective as EB
[3]
  IC50: 15 µM
[4]; [6]
  IC50: 110 µM
[4]; [7]
  IC50: 35 µM
[5]
  IC50: 21 µM

## CC[C@H](C)[C@H](NC(=O)[C@H](CCCCN)NC(=O)[C@@H](NC(=O)[C@H](CCC(N)=O)NC(=O)[C@H](CCCNC(=N)N)NC(=O)CCCCCNC(=O)CCCC[C@@H]1SC[C@@H]2NC(=O)N[C@@H]21)[C@@H](C)CC)C(=O)N[C@@H](Cc1c[nH]c2ccccc12)C(=O)N[C@@H](Cc1ccccc1)C(=O)N1CCC[C@H]1C(=O)N[C@@H](CC(N)=O)C(=O)N[C@@H](CCCNC(=N)N)C(=O)N[C@@H](CCCNC(=N)N)C(=O)N[C@@H](CCSC)C(=O)N[C@@H](CCCCN)C(=O)N[C@@H](Cc1c[nH]c2ccccc12)C(=O)N[C@@H](CCCCN)C(=O)N[C@@H](CCCCN)C(=O)N1CCC[C@H]1C(=O)NCC(=O)N[C@@H](Cc1ccc(O)cc1)C(=O)N[C@@H](C)C(=O)NCC(=O)N[C@@H](C)C(=O)N[C@H](C(=O)N[C@H](C(=O)N[C@@H](CC(N)=O)C(=O)N[C@@H](CC(=O)O)C(=O)N[C@@H](CC(C)C)C(=O)O)C(C)C)C(C)C [bHOM-9, b-RQIKIWFPNRRMKWKK-9] ({Biotin-Ahx}-RQIKIWFPNRRMKWKKPGYAGAVVNDL-OH)
[3]
  IC50: 9 to 12 µM
[4]; 4° C.
  Virucidal Activity 4° C. (IC50): None
[4]; [7]
  IC50: 115 µM
[5]
  IC50: 6 µM

## CC[C@H](C)[C@H](NC(=O)[C@H](CCCCN)NC(=O)[C@@H](NC(=O)[C@H](CCC(N)=O)NC(=O)[C@H](CCCNC(=N)N)NC(=O)CCCCCNC(=O)CCCC[C@@H]1SC[C@@H]2NC(=O)N[C@@H]21)[C@@H](C)CC)C(=O)N[C@@H](Cc1ccccc1)C(=O)N[C@@H](Cc1ccccc1)C(=O)N1CCC[C@H]1C(=O)N[C@@H](CC(N)=O)C(=O)N[C@@H](CCCNC(=N)N)C(=O)N[C@@H](CCCNC(=N)N)C(=O)N[C@@H](CCSC)C(=O)N[C@@H](CCCCN)C(=O)N[C@@H](Cc1ccccc1)C(=O)N[C@@H](CCCCN)C(=O)N[C@@H](CCCCN)C(N)=O [bHOMFF, b-RQIKI F FPNRRMK F KK-amide] ({Biotin-Ahx}-RQIKIFFPNRRMKFKK-NH2)
[3]
  IC50: 40 µM
[4]; 4° C.
  Virucidal Activity 4° C. (IC50): None
[4]; 37° C.
  Virucidal Activity 37° C. (IC50): None
[5]
  IC50: 34 µM

## CC(C)C[C@H](NC(=O)[C@H](C)NC(=O)[C@H](CCCCN)NC(=O)[C@H](CC(C)C)NC(=O)[C@H](C)NC(=O)[C@H](CC(C)C)NC(=O)[C@H](CCCCN)NC(=O)[C@H](CC(C)C)NC(=O)[C@H](C)NC(=O)[C@H](CC(C)C)NC(=O)[C@H](CCCCN)NC(=O)CCCCCNC(=O)CCCC[C@@H]1SC[C@@H]2NC(=O)N[C@@H]21)C(=O)N[C@@H](CCCCN)C(=O)N[C@@H](C)C(=O)N[C@@H](C)C(=O)N[C@@H](CC(C)C)C(=O)N[C@@H](CCCCN)C(=O)N[C@@H](CC(C)C)C(=O)N[C@@H](C)C(N)=O [bKLA, b-KLALKLALKALKAALKLA-amide]
[3]
  IC50: 11 µM
[4]; [6]
  IC50: 45 µM
[5]
  IC50: 4.5 µM

## CC(C)C[C@H](NC(=O)[C@H](CC(=O)O)NC(=O)[C@H](CC(N)=O)NC(=O)[C@@H](NC(=O)[C@@H](NC(=O)[C@H](C)NC(=O)CNC(=O)[C@H](C)NC(=O)[C@H](Cc1ccc(O)cc1)NC(=O)CNC(=O)[C@@H]1CCCN1C(=O)[C@H](CCCNC(=N)N)NC(=O)[C@H](CCCNC(=N)N)NC(=O)[C@H](CCCNC(=N)N)NC(=O)[C@H](CCC(N)=O)NC(=O)[C@H](CCCNC(=N)N)NC(=O)[C@H](CCCNC(=N)N)NC(=O)[C@H](CCCCN)NC(=O)[C@H](CCCCN)NC(=O)[C@H](CCCNC(=N)N)NC(=O)CNC(=O)[C@H](Cc1ccc(O)cc1)NC(=O)CCCCCNC(=O)CCCC[C@@H]1SC[C@@H]2NC(=O)N[C@@H]21)C(C)C)C(C)C)C(=O)O [bTAT-9, b-YGRKKRRQRRR-9] ({Biotin-Ahx}-YGRKKRRQRRRPGYAGAVVNDL-OH)
[3]
  IC50: 26 µM
[4]; 4° C.
  Virucidal Activity 4° C. (IC50): None
[4]; 37° C.
  Virucidal Activity 37° C. (IC50): None
[5]
  IC50: 8 µM

## NH2-RRKKAAVALLAV LLALLAPP-COOH (H-RRKKAAVALLAVLLALLAPP-OH) [EBPP]
[1]
  antiviral activity compared with EB: twice as active
[2]; yield reduction (FIG. 1E; data not shown)
  antiviral activity compared with EB: twice as active

## RQIKIWFPNRRMKWKK [bHOMd]
[3]
  IC50: 7 µM
[4]; 4° C.
  Virucidal Activity 4° C. (IC50): None
[4]; [7]
  IC50: 115 µM

## b-YGRKKRRQRRR-9x [bTAT-9x]
[3]
  IC50: 67 µM
[4]; 4° C.
  Virucidal Activity 4° C. (IC50): None
[4]; 37° C.
  Virucidal Activity 37° C. (IC50): None
